Measured values from BindingDB's records for doi:10.1021/jm960276a (Texas A&M University, 1996).
Square brackets hold non-standard residues; d marks the D form. Peptide text beside a SMILES is read from it. NMeR = CN[C@@H](CCCNC(=N)N)C(=O)O; 3Amb = NCc1cccc(C(=O)O)c1; dAbu = CC[C@@H](N)C(=O)O

Biological target: Integrin alpha-IIb/beta-3 (Homo sapiens, UniProt P08514+P05106)
Assay: Inhibition of human platelet aggregation mediated by alpha llb/beta3 interaction with fibrinogen

Sequence of Integrin alpha-IIb/beta-3 (P05106 27-788 limits assumed): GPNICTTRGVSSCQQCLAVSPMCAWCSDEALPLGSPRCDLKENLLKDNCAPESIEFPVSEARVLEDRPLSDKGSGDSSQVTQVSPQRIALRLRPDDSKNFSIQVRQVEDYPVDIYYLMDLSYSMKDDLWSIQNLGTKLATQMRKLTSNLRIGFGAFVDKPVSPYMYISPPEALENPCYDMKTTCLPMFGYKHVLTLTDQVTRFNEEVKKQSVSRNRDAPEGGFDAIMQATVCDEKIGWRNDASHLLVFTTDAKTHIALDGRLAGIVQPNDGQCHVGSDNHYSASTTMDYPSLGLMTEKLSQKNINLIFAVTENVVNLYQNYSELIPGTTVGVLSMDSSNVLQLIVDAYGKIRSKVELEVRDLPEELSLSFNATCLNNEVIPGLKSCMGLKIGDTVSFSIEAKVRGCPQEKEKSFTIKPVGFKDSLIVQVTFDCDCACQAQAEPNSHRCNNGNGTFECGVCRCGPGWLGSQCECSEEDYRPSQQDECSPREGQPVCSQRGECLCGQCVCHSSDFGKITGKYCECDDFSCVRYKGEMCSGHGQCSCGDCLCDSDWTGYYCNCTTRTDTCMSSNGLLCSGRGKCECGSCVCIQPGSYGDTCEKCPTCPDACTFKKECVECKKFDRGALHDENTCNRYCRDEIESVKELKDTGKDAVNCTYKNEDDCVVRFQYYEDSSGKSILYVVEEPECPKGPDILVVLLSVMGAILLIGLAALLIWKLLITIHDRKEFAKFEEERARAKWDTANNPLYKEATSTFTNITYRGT
Sequence of Integrin alpha-IIb/beta-3 (P08514 32-887 limits assumed): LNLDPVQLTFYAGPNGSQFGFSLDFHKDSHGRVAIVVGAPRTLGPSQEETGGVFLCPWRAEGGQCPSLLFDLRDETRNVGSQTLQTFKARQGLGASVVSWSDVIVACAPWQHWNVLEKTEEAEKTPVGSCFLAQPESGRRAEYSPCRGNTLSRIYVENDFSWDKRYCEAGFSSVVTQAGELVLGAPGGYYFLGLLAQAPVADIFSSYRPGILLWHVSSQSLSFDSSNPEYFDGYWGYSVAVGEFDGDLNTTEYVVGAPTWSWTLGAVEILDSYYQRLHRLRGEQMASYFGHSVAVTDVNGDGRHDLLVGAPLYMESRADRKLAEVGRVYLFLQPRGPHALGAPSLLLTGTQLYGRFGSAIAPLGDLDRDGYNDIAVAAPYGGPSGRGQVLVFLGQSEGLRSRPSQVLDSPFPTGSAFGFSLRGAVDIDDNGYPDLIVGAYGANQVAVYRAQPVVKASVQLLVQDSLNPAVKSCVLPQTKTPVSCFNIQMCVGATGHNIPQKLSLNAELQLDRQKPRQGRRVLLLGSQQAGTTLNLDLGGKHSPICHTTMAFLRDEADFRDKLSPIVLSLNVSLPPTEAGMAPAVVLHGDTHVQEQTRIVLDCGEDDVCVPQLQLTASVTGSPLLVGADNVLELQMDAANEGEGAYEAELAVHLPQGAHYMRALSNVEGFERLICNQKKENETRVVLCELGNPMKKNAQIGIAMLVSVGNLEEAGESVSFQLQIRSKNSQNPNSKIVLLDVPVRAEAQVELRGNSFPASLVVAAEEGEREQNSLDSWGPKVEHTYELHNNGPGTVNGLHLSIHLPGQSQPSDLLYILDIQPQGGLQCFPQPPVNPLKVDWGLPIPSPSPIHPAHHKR
Sequence of Integrin alpha-IIb/beta-3 (P08514 891-1039 limits assumed): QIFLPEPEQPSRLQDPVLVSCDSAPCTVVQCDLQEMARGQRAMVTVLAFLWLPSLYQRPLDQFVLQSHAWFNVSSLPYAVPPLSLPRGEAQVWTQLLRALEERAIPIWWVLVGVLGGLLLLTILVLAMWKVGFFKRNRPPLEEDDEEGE

IC50 [µM]	SMILES
> 100	N=C(N)NCCC[C@H](NC(=O)[C@H](CC(=O)O)NC(=O)CNC(=O)[C@@H](N)CCCNC(=N)N)C(=O)NCC(=O)N[C@@H](CC(=O)O)C(=O)O [(S)-2-[2-((S)-2-{(S)-2-[2-((S)-2-Amino-5-guanidino-pentanoylamino)-acetylamino]-3-carboxy-propionylamino}-5-guanidino-pentanoylamino)-acetylamino]-succinic acid] (H-RGDRGD-OH)
0.02	CC[C@H]1NC(=O)c2cccc(c2)CNC(=O)[C@H](CC(=O)O)NC(=O)CNC(=O)[C@H](CCCN=C(N)N)N(C)C1=O [DMP-728] (cyclo([NMeR]GD[3Amb][dAbu]))
> 100	N=C(N)NCCC[C@@H]1NC(=O)[C@H](CC(=O)O)NC(=O)CNC(=O)[C@H](CCCNC(=N)N)NC(=O)[C@H](CC(=O)O)NC(=O)CNC1=O [[(2S,5R,11R,14S)-11-Carboxymethyl-5,14-bis-(3-guanidino-propyl)-3,6,9,12,15,18-hexaoxo-1,4,7,10,13,16hexaaza-cyclooctadec-2-yl]-acetic acid]
> 100	N=C(N)NCCC[C@@H]1NC(=O)[C@H](CC(=O)O)NC(=O)CNC(=O)[C@H](CCCNC(=N)N)NC(=O)[C@@H](CC(=O)O)NC(=O)CNC1=O [[(2S,5R,11S,14S)-11-Carboxymethyl-5,14-bis-(3-guanidino-propyl)-3,6,9,12,15,18-hexaoxo-1,4,7,10,13,16hexaaza-cyclooctadec-2-yl]-acetic acid]
